Structures are written as SMILES. Where two headings read alike, the source gives them in different places.

One data set has as its system serum calcium. Nature of the data set: Effects of acid and salt form of diphosphonates in hypercalceamic rats. Type of data set: in vivo, male Wistar rats. The protocol:
Effects of acid and salt form of diphosphonates of formula (I) in hypercalceamic rats
To verify this activity the acid form of compound 4 and is monosodium salt counterpart (compound 10) were also tested by using a protol similar to the one described by Potokar (see above). Briefly, groups of 4 male Wistar rats received acid or salt form of compound 4 as 0.05% solution in drinking water corresponding to about 50 mg/kg/day. The rats were treated with the compounds for 15 days.
Serum calcium was measured in hypercalceamic rats.

The subject of the next data set is tissue cholesterol. Nature of the data set: Effects in cholesterol fed rats (serum, liver and aorta lipids). In kind it is in vivo. The settings on record: cholesterol fed rats (C.F), 200 mg/kg/day; for change in vivo at 200 mg/kg/day: Rattus norvegicus. The protocol:
Effects of diphosphonates of formula (I) in cholesterol fed rats
In order to increase tissue cholesterol, especially liver, rats were fed a high fat-high cholesterol diet for 10 days to 3 months, with the following diet composition: casein 20%, butter 37%, cellulose 9.1%, dextrose 18,9%, cholesterol 4.5%, sodium cholate 1.8%, minerals 7.3%, vitamins 1%, choline 0.4%.
The rats were then fed normal food and were treated for 10 days to 3 months with different compounds (200 mg/kg/day). Serum parameters described above were measured. Liver and aorta lipids were extracted according to J. Folch et al (J. Biochem. 226, 497, 1957). Total lipids were determined by the sulfophosphovanillic reaction (see N. Zolner and K. Kirsch, Z. Ges. exp. Med. 135, 545, 1962) and cholesterol by the Liebermann-Burchard reaction or appropriate enzymatic reaction.
(§1) In above Table IV, results are given as % control values. Except for serum calcium, values which differ from control values by less than 15% are considered as non significant (NS).
Serum free fatty acids, triglycerides and phospholipids were measured in normal rats (N) and rats previously fed a cholesterol diet for 10 days (C.F.)
Serum α/β cholesterol, total lipids and cholesterol of liver and aorta were determined in normal rats (N) and rats which had previously been fed on high cholesterol diet (C.F.)

The test system of the next data set is lipid metabolism. Nature of the data set: Effects of diphosphonates on lipid metabolism in normal rats (serum lipids, α/β cholesterol). Type of data set: in vivo, male Wistar rats. To be noted: for change in vivo at 200 mg/kg/day: Rattus norvegicus, po. The protocol: Effects of diphosphonates of formula (I) on lipid metabolism in normal rats Groups of 4 to 5 normal male Wistar rats, weighing about 200 g were treated with diphosphonates (200 mg/kg/day) p.o. for 4 to 21 days. Water soluble compounds were given in solution in 24 mM bicarbonate buffer. Lipid soluble compounds were given in corn oil. The rats were weighed, sacrificed by decapitation (under light ether anesthesia) after overnight fasting. Blood was collected and serum used for analysis. The following blood parameters reflecting changes in lipid metabolism are reported: […]
free fatty acids measured according to W. G. Duncombe (Clin. Acta 9, 122, 1964) triglycerides enzymatic method (Boehringer Mannheim Kit 126 012) phospholipids: molybdate/vanadate reaction (Boehringer Mannheim Kit 124 974) β-lipoprotein cholesterol was measured after heparin, CaCl2 precipitation according to M. Burstein et al. (La Presse Medicale 43, 974, 1958) and to D. Watson (Clin. Chim. Acta 5, 637, 1960).
as §1
Serum free fatty acids, triglycerides and phospholipids were measured in normal rats (N) and rats previously fed a cholesterol diet for 10 days (C.F.) Serum α/β cholesterol, total lipids and cholesterol of liver and aorta were determined in normal rats (N) and rats which had previously been fed on high cholesterol diet (C.F.)

In data set [1] the test system is alpha/beta cholesterol ratio. Nature of the data set: Comparison of clofibrate, gemfibrozil and fenofibrate to compound 16: alpha/beta cholesterol ratio in normal Wistar rats. Type of data set: in vivo. To be noted: 100 mg/kg for 10 days, n = 5. The protocol:
It should be noted that these diphosphonate compounds are different and novel in comparison to the classical hypolipidemic compounds as illustrated in Table V. The diphosphonate ester used for comparison was the only one to increase the alpha/beta cholesterol ratio in control rats.
Each drug was administered at 100 mg/kg for 10 days

The subject of a further data set is HDL cholesterol. To be noted: rats; Day et al., Muller and Cortesi; cited from earlier work.
Another data set in a line: Oral LD50 toxicity. In kind it is in vivo. To be noted: in vivo; oral. From the text: Following the extensive pharmacological screening of these compounds, using over 2000 animals, those showing the most potential were then subjected to toxicity testing for further selection relative to their activity/toxicity risk profiles
By way of LD50 (Lethal Dose 50) the methyl diphosphonates were discovered to have a significant lower degree of toxicity. […] This represents a significant six fold difference in toxicity.

Data set [2] has as its system aorta and kidney calcification. The settings on record: hypercalceamic animal model; cited from earlier work.
[3] abbreviates: read-out: Liver Chol. (% control values).
[4] abbreviates: normal rats (N), 200 mg/kg/day p.o., read-out: Serum Chol. α/β (% control values).
The mark [5] stands for this setting: normal rats (N), 200 mg/kg/day p.o., read-out: Serum Phospholipids (% control values).
Setting [6] is: normal rats (N), 200 mg/kg/day p.o., 200 mg/kg/day.
Where [7] appears, read: normal rats (N), 200 mg/kg/day p.o., read-out: Serum Triglycerides (% control values).

Regarding `O=P(O)(O)C(O)(c1ccc(Cl)cc1)P(=O)(O)O` [4 Acid, hydroxy (p-chlorophenyl) methylenediphosphonic acid], the “Serum Calcium (% control values)” value in the data set on serum calcium (15% NS limit does not apply) was -20%. For the same molecule, in the data set on serum calcium (about 50 mg/kg/day in drinking water, 15 days, listed as acid form of compound 4), the “decrease of serum calcium” value was 20%. For the same molecule, the change in vivo at 200 mg/kg/day in the data set with tissue cholesterol (setting [3]) is below 15%. The change in vivo at 200 mg/kg/day with tissue cholesterol (read-out: Liver Total Lipids (% control values)) was below 15%. In addition, in the data set on tissue cholesterol, the “Aorta Chol. (% control values)” value is “NS (Except for serum calcium, values which differ from control values by less than 15% are considered as non significant (NS))” and the “Aorta Total Lipids (% control values)” value is “NS (Except for serum calcium, values which differ from control values by less than 15% are considered as non significant (NS))”. The change in vivo at 200 mg/kg/day with lipid metabolism (setting [4]) was below 15%. In addition, the change in vivo at 200 mg/kg/day in the data set with lipid metabolism (setting [5]) was below 15%. In the data set on lipid metabolism (setting [6]), the “Serum Free Fatty Acids (% control values)” value is on record as -17% and the “Serum Triglycerides (% control values)” value is listed as -29%. In the data set with lipid metabolism (rats), the “decreases in serum triglycerides” value is on record as “Significant decreases” and the “property to change lipid metabolism / increase HDL” value is recorded as “do not have these properties”.

With `CCOC(=O)C(C)(C)Oc1ccc(Cl)cc1` [Clofibrate, reference compound], in data set [1], the “alpha/beta Cholesterol Ratio” value is reported as 2.76 ± 0.40. In the data set with HDL cholesterol, the “HDL cholesterol” value is “decreases HDL cholesterol”. For the same molecule, the change in vivo at 200 mg/kg/day is below 15% in the data set on tissue cholesterol (setting [3]); below 15% in the data set on lipid metabolism (setting [4]); below 15% with lipid metabolism (normal rats (N), 200 mg/kg/day p.o., read-out: Serum Free Fatty Acids (% control values)); -34% in the data set with lipid metabolism (setting [5]); 19% in the data set with lipid metabolism (setting [7]). For the same molecule, the “decrease of plasma phospholipids” value with lipid metabolism (rats, comparison) is 33.6%. For the same molecule, in the data set on lipid metabolism (rats, comparison), the “decrease of α/β ratio” value is reported as 52.2%.

What is called LD50 is the dose at which mortality reaches 50%. Low readings indicate a more toxic substance, high ones a less toxic substance. `CCOP(=O)(OCC)OC(c1ccc(Cl)cc1)P(=O)(OCC)OCC` (centres unmarked) [Compound 24] returned an LD50 in “Oral LD50 toxicity” of 547 mg/kg. Besides, the change in vivo at 200 mg/kg/day in the data set with lipid metabolism (setting [4]), in the data set on lipid metabolism (setting [5]) and in the data set with lipid metabolism (setting [7]) was below 15% in each case.

For the molecule `CC(C)OC(=O)C(C)(C)Oc1ccc(C(=O)c2ccc(Cl)cc2)cc1` [Fenofibrate], the “alpha/beta Cholesterol Ratio” value in data set [1] is on record as 1.19 ± 0.20.

As for `Cc1ccc(C)c(OCCCC(C)(C)C(=O)O)c1` [Gemfibrozil], in data set [1], the “alpha/beta Cholesterol Ratio” value is given as 5.33 ± 0.31.

For `O=P(O)(O)C(Cl)(Cl)P(=O)(O)O` [dichloromethylene diphosphonate], in data set [2], the “aorta and kidney calcification” value was “inhibit aorta and kidney calcification”; the “vitamin D-induced rise in plasma calcium” value is recorded as “prevent the vitamin D-induced rise in plasma calcium”.

These data come from patent US4416877A, “Anti-atherosclerotic pharmaceutical compositions containing diphosphonate compounds” (priority 1979, dated 1983).
